One may read the IC50 as the concentration that inhibits the measured activity by half. A high value points to a need for much substance.

Data set [1] addresses T1, Amine oxidase [flavin-containing] B (Homo sapiens, UniProt P27338).
T1 sequence (P27338 whole entry): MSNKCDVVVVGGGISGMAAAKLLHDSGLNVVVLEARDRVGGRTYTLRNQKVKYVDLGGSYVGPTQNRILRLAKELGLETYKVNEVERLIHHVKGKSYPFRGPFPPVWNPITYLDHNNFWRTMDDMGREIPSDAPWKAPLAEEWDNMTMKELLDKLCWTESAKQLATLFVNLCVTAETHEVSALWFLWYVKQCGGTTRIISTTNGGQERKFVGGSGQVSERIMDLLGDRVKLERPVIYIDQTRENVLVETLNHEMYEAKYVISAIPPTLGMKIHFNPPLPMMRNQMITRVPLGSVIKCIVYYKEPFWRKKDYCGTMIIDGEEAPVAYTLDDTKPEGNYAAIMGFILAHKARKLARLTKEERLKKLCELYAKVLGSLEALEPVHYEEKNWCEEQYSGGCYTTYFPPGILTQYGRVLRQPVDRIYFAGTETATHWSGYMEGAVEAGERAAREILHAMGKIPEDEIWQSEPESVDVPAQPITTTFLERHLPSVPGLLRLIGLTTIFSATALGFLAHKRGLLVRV
Nature of the data set: biochemical.
Description: Inhibition of human recombinant MAO-B expressed in baculovirus infected BTI insect cells using (4S)-4,5-dihydro-2-(6-hydroxybenzothiazolyl)-4-thiazolecarboxylic acid as substrate incubated for 60 mins by MAO-Glo assay

For data set [2], the species on record is Homo sapiens.
For data set [3], the target named is T2, Lysine-specific histone demethylase 1A (Homo sapiens, UniProt O60341). As to the kind of experiment: Inhibition of LSD1 in human HeLa cells assessed as H3K4me2/H3 ratio at 20 uM after 24 hrs by Western blot analysis in absence of fetal bovine serum. The format is cell-based.
Data set [4] concerns the target T3, Lysine-specific histone demethylase 2 (Homo sapiens, UniProt Q8NB78).
T3 sequence (Q8NB78 whole entry): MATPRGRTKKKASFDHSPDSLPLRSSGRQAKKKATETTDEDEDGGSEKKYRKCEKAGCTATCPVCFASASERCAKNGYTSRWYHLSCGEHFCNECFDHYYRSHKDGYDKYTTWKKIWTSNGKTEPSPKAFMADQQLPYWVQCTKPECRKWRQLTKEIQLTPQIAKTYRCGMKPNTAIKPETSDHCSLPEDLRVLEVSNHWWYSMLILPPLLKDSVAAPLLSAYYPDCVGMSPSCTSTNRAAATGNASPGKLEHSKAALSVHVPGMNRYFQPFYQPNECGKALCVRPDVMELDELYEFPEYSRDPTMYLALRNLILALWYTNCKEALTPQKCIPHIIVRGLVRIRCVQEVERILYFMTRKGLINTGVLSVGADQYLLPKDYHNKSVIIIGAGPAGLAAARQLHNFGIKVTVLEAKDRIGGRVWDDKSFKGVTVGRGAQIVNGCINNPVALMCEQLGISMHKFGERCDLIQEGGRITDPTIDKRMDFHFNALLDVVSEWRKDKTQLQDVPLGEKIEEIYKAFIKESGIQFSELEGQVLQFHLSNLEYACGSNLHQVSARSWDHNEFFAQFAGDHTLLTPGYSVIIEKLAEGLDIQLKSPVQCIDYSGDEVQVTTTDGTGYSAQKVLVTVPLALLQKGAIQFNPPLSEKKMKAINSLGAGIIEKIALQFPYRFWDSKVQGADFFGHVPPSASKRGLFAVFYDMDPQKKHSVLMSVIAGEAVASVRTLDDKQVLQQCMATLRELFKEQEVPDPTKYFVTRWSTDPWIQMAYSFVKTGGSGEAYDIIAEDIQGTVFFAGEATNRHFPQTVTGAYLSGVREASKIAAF
As to the kind of experiment: biochemical.
Description: Inhibition of full length N-terminal His-tagged human LSD2 (1 to 822 residues) expressed in Escherichia coli BL21(DE3) cells using H3K4me2 peptide substrate by MALDI-TOF mass spectrometric analysis

In data set [5] the target is T4, Lysine-specific demethylase 5A (Homo sapiens, UniProt P29375).
T4 sequence (P29375 whole entry): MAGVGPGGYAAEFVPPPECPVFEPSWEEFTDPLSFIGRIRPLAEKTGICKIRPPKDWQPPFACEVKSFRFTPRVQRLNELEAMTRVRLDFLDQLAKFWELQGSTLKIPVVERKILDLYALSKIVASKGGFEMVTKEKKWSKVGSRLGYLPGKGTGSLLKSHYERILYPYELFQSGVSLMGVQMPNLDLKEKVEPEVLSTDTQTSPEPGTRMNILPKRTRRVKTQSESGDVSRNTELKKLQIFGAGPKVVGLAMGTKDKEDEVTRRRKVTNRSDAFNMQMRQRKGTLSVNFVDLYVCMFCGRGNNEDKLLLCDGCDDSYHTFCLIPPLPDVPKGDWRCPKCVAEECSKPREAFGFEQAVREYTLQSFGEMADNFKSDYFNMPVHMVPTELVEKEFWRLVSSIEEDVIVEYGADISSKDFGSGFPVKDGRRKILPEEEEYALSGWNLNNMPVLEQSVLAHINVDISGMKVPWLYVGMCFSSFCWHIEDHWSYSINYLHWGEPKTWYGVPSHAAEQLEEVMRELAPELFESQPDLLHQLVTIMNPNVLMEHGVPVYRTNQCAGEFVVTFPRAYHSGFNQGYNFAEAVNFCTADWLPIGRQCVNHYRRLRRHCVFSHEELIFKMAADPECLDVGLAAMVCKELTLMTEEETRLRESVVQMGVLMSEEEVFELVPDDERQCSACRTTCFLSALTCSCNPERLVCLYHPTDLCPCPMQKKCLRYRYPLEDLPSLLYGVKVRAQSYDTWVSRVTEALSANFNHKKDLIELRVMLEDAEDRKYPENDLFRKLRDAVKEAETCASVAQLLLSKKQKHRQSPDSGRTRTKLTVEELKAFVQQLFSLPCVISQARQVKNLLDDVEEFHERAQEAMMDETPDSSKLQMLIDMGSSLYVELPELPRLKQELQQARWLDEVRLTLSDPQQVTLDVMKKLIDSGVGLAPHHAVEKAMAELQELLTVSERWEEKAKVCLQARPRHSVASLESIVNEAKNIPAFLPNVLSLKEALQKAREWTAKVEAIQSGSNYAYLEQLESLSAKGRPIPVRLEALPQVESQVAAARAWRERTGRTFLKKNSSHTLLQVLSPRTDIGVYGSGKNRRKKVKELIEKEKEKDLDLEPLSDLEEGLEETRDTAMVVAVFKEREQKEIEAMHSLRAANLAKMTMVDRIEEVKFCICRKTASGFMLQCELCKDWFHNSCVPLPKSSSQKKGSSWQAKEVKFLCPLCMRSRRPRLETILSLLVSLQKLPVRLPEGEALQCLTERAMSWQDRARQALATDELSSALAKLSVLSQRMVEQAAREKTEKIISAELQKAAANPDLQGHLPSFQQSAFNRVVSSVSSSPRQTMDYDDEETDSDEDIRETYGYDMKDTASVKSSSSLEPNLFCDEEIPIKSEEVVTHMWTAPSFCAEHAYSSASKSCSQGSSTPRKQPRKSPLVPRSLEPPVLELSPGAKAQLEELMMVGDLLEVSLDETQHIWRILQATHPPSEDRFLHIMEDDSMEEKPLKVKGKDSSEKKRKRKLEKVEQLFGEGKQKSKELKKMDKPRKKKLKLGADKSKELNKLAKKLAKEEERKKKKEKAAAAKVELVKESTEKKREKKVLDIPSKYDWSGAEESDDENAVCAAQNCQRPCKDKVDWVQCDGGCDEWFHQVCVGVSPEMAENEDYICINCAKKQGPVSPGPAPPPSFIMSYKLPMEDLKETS
Description: Inhibition of JARID1A (unknown origin) using H3K4me3 peptide substrate preincubated for 5 mins followed by substrate addition by MALDI-TOF mass spectrometric analysis
In data set [6] the target is T2, Lysine-specific histone demethylase 1A. To be noted: 22 h.
Description: Drug metabolism assessed as LSD1 (unknown origin)-mediated compound-FAD adduct formation after 22 hrs by MALDI-TOF mass spectrometric analysis
Data set [7] is filed under the species Homo sapiens. This is another data set of the same source.
The species entered for data set [8] is Homo sapiens. The source holds these as a separate data set.
Another data set relates to HeLa. Nature of the data set: Antiproliferative activity against human HeLa cells assessed as inhibition of cell viability at 12.5 to 100 uM treated for 24 hrs measured after 48 hrs by alamar blue assay in absence of fetal bovine serum. The format is functional, cell-based. (Resazurin is reduced to fluorescent resorufin, in cell work by metabolically active cells.)
For data set [9], the species on record is Homo sapiens. This is another data set of the same source.
The target of data set [10] is T5, Amine oxidase [flavin-containing] A (Homo sapiens, UniProt P21397).
T5 sequence (P21397 whole entry): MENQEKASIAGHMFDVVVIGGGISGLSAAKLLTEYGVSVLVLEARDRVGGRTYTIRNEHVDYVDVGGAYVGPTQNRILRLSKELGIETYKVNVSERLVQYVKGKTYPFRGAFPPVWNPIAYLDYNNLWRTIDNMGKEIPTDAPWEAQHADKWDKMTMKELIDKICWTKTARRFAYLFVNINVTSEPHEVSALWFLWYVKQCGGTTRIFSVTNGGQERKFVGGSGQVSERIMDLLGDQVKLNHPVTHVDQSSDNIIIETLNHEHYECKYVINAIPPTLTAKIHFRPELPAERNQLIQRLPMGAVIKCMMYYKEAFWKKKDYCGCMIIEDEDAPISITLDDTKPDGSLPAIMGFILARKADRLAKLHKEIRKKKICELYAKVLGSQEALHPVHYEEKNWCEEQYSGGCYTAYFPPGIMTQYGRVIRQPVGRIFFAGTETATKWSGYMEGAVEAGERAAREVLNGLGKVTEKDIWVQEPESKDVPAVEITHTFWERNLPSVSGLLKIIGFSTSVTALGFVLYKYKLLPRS
As to the kind of experiment: biochemical.
Description: Inhibition of human recombinant MAO-A expressed in baculovirus infected BTI insect cells using (4S)-4,5-dihydro-2-(6-hydroxybenzothiazolyl)-4-thiazolecarboxylic acid as substrate incubated for 60 mins by MAO-Glo assay

Data set [11] addresses T2, Lysine-specific histone demethylase 1A. As to the kind of experiment: biochemical.
Description: Inhibition of full length N-terminal His-tagged human recombinant LSD1 (1 to 852 residues) expressed in Escherichia coli BL21(DE3) cells using H3K4me2 peptide as substrate preincubated for 5 mins followed by substrate addition measured for 30 mins by peroxidase coupled assay
Data set [12] addresses T4, Lysine-specific demethylase 5A. Nature of the data set: Inhibition of JARID1A in human HeLa cells assessed as H3K4me3/H3 ratio at 5 uM after 24 hrs by Western blot analysis in absence of fetal bovine serum. The data set is classed as cell-based. (Immunoblotting shows a protein as a band on a membrane.)
Data set [13] shares this target. As to the kind of experiment: Inhibition of JARID1A in human HeLa cells assessed as H3K4me3/H3 ratio at 10 uM after 24 hrs by Western blot analysis in absence of fetal bovine serum. The format is cell-based.
Data set [14] concerns the target T2, Lysine-specific histone demethylase 1A. As to the kind of experiment: Inhibition of LSD1 in human HeLa cells assessed as H3K4me2/H3 ratio at 10 uM after 24 hrs by Western blot analysis in absence of fetal bovine serum. The data set is classed as cell-based.
Data set [15] shares this target. As to the kind of experiment: Inhibition of LSD1 in human HeLa cells assessed as increase in H3K4me2 level after 24 hrs by Western blot analysis in absence of fetal bovine serum. The data set is classed as cell-based.
Data set [16] has as its target T6, Lysine-specific histone demethylase 2 (Homo sapiens) (UniProt Q8NB78).
T6 sequence (whole entry): T3 sequence (Q8NB78 whole entry)
Nature of the data set: Inhibition of LSD2 in human HeLa cells assessed as H3K4me1/H3 ratio at 5 uM after 24 hrs by Western blot analysis in absence of fetal bovine serum. The format is cell-based.

Data set [17] has as its target T6, Lysine-specific histone demethylase 2 (Homo sapiens). As to the kind of experiment: Inhibition of LSD2 in human HeLa cells assessed as H3K4me1/H3 ratio at 20 uM after 24 hrs by Western blot analysis in absence of fetal bovine serum. The data set is classed as cell-based.
Data set [18] concerns the target T4, Lysine-specific demethylase 5A. As to the kind of experiment: Inhibition of JARID1A in human HeLa cells assessed as H3K4me3/H3 ratio at 20 uM after 24 hrs by Western blot analysis in absence of fetal bovine serum. The format is cell-based.
In data set [19] the target is T2, Lysine-specific histone demethylase 1A. Nature of the data set: Inhibition of LSD1 in human HeLa cells assessed as H3K4me2/H3 ratio at 5 uM after 24 hrs by Western blot analysis in absence of fetal bovine serum. The data set is classed as cell-based.
Data set [20] concerns the target T6, Lysine-specific histone demethylase 2 (Homo sapiens). As to the kind of experiment: Inhibition of LSD2 in human HeLa cells assessed as H3K4me1/H3 ratio at 10 uM after 24 hrs by Western blot analysis in absence of fetal bovine serum. The format is cell-based.
The target in data set [21] is T2, Lysine-specific histone demethylase 1A. As to the kind of experiment: Time dependent irreversible inhibition of human LSD1 using H3K4me2 peptide as substrate at 0.1 to 6.4 uM incubated for 5 mins by fluorometric assay.
The target is the same in data set [22]. As to the kind of experiment: Irreversible inhibition of LSD1 (unknown origin) using H3K4me2 peptide substrate assessed as compound-FAD adduct formation after 22 hrs by MALDI-TOF mass spectrometric analysis.

Activity calls are given as the source filed them. The calls are words filed in the database; no cut-off is given here.

As to `CC(C)C[C@@H](NC(=O)[C@@H](CCCNN)NC(=O)[C@@H](CO)NC(=O)[C@H](CCCNC(=N)N)NC(=O)[C@@H]1CCCN1)C(=O)N[C@@H](C(=O)N[C@H](CCCNC(=N)N)C(=O)N[C@H](CCCCN)C(=O)N1CCC[C@@H]1C(=O)N[C@@H](CO)C(=O)N[C@@H](CC(=O)O)C(=O)N1CCC[C@H]1C(=O)N[C@@H](CC(N)=O)C(=O)N[C@@H](CCCNC(=N)N)C(=O)N[C@H](CCCCNC(=O)[C@H](CCCNC(=N)N)NC(=O)[C@H](CCCNC(=N)N)NC(=O)[C@H](CCCNC(=N)N)NC(=O)[C@H](CCCNC(=N)N)NC(=O)[C@H](CCCNC(=N)N)NC(=O)[C@H](CCCNC(=N)N)NC(=O)[C@H](CCCNC(=N)N)NC(=O)[C@H](N)CCCNC(=N)N)C(=O)N1CCC[C@H]1C(=O)N[C@H](CC(N)=O)C(=O)N[C@@H](Cc1ccc(O)cc1)C(=O)N[C@@H](CO)C(=O)N[C@@H](CCC(N)=O)C(N)=O)C(C)C`, the IC50 in data set [1] is 30 µM; in [4], 7.51 µM; in [5], 5.05 µM; in data set [10], > 30 µM; in [11], 0.32 µM. The Ratio IC50 in the data set filed under Homo sapiens [2] was 23; in the data set filed under Homo sapiens [7], > 94; in the data set listed under Homo sapiens [8], 94; in the data set filed under Homo sapiens [9] it was 16. Besides, in [3], the Ratio was 1.52. In addition, the Drug metabolism result in data set [6] is “metabolite_detected”. Moreover, the inhibition entry in the data set on HeLa was “Active”.
Take `CC(C)C[C@@H](NC(=O)[C@@H](CCCNN)NC(=O)[C@@H](CO)NC(=O)[C@@H](CCCNC(=N)N)NC(=O)[C@H]1CCCN1)C(=O)N[C@@H](C(=O)N[C@H](CCCNC(=N)N)C(=O)N[C@@H](CCCCNC(=O)COCCOCCNC(=O)[C@@H](CCCNC(=N)N)NC(=O)[C@@H](CCCNC(=N)N)NC(=O)[C@@H](CCCNC(=N)N)NC(=O)[C@@H](CCCNC(=N)N)NC(=O)[C@@H](CCCNC(=N)N)NC(=O)[C@@H](CCCNC(=N)N)NC(=O)[C@@H](CCCNC(=N)N)NC(=O)[C@@H](N)CCCNC(=N)N)C(=O)N1CCC[C@H]1C(=O)N[C@@H](CO)C(=O)N[C@@H](CC(=O)O)C(=O)N1CCC[C@H]1C(=O)N[C@@H](CC(N)=O)C(=O)N[C@@H](CCCNC(=N)N)C(=O)N[C@@H](CCCCN)C(=O)N1CCC[C@H]1C(=O)N[C@H](CC(N)=O)C(=O)N[C@@H](Cc1ccc(O)cc1)C(=O)N[C@@H](CO)C(=O)N[C@@H](CCC(N)=O)C(N)=O)C(C)C`: the Ratio in [12] was found to be 1.03; in data set [3] it was 2.08; in data set [13] it was 0.98; in data set [14] it was 1.73; in data set [16], 0.96; in data set [17] it was 1.05. Moreover, the Ratio in data set [18] is 1.01; in data set [19] it was 1.29; in data set [20], 0.99. Further, the half-inhibitory concentration (IC50) in data set [1] was 30 µM; in data set [4], 23.2 µM; in data set [5], 12.9 µM; in data set [10], > 30 µM; in data set [11] it was 0.29 µM. The Ratio IC50 in the data set filed under Homo sapiens [2] was 23; in the data set filed under Homo sapiens [7] it was > 94; in the data set listed under Homo sapiens [8], 94; in the data set filed under Homo sapiens [9], 16. Besides, in data set [15], the inhibition result was “Dose-dependent effect”. Moreover, the Drug metabolism entry in data set [6] is “metabolite_detected”. For the same molecule, the inhibition entry with HeLa is “Active”.
`CC(C)C[C@@H](NC(=O)[C@@H](CCCNN)NC(=O)[C@@H](CO)NC(=O)[C@H](CCCNC(=N)N)NC(=O)[C@@H]1CCCN1)C(=O)N[C@@H](C(=O)N[C@H](CCCNC(=N)N)C(=O)N[C@H](CCCCN)C(=O)N1CCC[C@@H]1C(=O)N[C@H](CO)C(=O)N[C@H](CC(=O)O)C(=O)N1CCC[C@@H]1C(=O)N[C@H](CC(N)=O)C(=O)N[C@H](CCCNC(=N)N)C(=O)N[C@H](CCCCN)C(=O)N1CCC[C@@H]1C(=O)N[C@@H](CC(N)=O)C(=O)N[C@H](Cc1ccc(O)cc1)C(=O)N[C@H](CO)C(=O)N[C@H](CCC(N)=O)C(N)=O)C(C)C`: the Ratio in data set [3] stood at 1.34. Further, the TDI entry in [21] is “Active”. Further, the inhibition result in data set [22] is “Active”.
